Measurements as given in publication PMC9196953 (Drug development research, 1999).
Read-outs that look alike come from different tables or passages of the source.

How the values were obtained:
human A3 receptors = biological target: T1, human A3 receptors (Homo sapiens, UniProt P0DMS8); experiment: Displacement of [125I]AB-MECA binding at human A3 receptors expressed in HEK cells; conditions: read-out: Ki hA3
T1 construct: expressed in transfected cells; host or cells: HEK-293
T1 sequence (P0DMS8 1-318): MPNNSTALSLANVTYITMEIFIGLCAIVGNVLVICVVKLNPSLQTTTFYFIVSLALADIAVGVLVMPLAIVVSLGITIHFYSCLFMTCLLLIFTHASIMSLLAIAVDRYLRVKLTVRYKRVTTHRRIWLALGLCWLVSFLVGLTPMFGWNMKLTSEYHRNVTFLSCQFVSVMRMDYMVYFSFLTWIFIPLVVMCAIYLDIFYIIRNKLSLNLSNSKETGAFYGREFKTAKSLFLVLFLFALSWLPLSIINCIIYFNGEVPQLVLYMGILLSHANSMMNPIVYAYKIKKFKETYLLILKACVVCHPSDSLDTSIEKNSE
Experimental: (§1) At A2B receptors, two radioligand binding assays (Table 1) were used. Ki values of xanthine derivatives were determined in displacement of binding of the non-selective radioligands […], 8 (4-(2-[7-amino-2-{furyl}{1,2,4}triazolo{2,3-a}{1,3,5}tr nzyl)-8-phenyloxyacetate-1-propyl-xanthine), at human A2B receptors expressed in HEK-293 cell membranes [[Linden and Jacobson, 1998]]. In order to evaluate selectivity, selected derivatives were subjected to standard binding assays at A1, A2A, and A3 receptors. The initial screening utilized rat brain A1/A2A receptors (with radioligands [^3H]R-PIA and [^3H]CGS-21680), and selected compounds were examined at the recombinant human subtypes (Table 1), using [^3H]CPX ([^3H]8-cyclopentyl-1,3-dipropylxanthine) and ^125I-ZM 241385, ^125I-4-(2-[7-amino-2-[2-furyl][1,2,4]triazolo[2,3-a][1,3,5]triazin-5-yl-amino]ethyl)phenol) [[Palmer et al., 1996]].

rat A1 receptors = biological target: T2, rat A1 receptors (Rattus norvegicus, UniProt P25099); experiment: Displacement of [3H]R-PIA binding to A1 receptors in rat brain membranes; conditions: read-out: Ki rA1
T2 construct: to A1 receptors from rat cerebral cortical membranes; from tissue; host or cells: rat cerebral cortical membranes
T2 sequence (P25099 1-326): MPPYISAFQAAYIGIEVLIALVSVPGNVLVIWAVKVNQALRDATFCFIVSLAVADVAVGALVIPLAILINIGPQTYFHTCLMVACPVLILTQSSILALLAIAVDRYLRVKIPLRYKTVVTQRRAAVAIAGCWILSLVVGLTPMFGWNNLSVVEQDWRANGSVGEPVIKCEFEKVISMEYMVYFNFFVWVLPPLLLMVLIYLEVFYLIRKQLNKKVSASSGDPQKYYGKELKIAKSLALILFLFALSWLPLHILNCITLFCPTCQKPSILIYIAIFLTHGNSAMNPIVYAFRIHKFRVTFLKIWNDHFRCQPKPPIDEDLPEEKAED
Experimental: (§2) All nonradioactive compounds were initially dissolved in DMSO and diluted with buffer to the final concentration, where the amount of DMSO never exceeded 2%. Incubations were terminated by rapid filtration over Whatman GF/B filters using a Brandell cell harvester. The tubes were rinsed three times with 3 mL buffer each.
(§3) At least six different concentrations of competitor, spanning 3 orders of magnitude adjusted appropriately for the IC50 value of each compound, were used. IC50 values, calculated with the nonlinear regression method implemented in Graph-Pad Prism (San Diego, CA) were converted to apparent Ki values as described by [Linden [1982]]. Hill coefficients of the tested compounds were in the range of 0.8–1.1.
as §1

rat A2A receptors = biological target: T3, rat A2A receptors (Rattus norvegicus, UniProt P30543); experiment: Displacement of [3H]CGS 21680 binding to A2A receptors in rat striatal membranes; conditions: read-out: Ki rA2A
T3 construct: to A2A receptors from rat striatal membranes; from tissue; host or cells: rat striatal membranes
Experimental: as §2, §3, §1

human A2B receptors = biological target: T4, human A2B receptors (Homo sapiens, UniProt P29275); experiment: Binding at human A2B receptors expressed in HEK-293 cells vs [3H]ZM241385; conditions: for rA1/hA2B: ratio of Ki rat A1 to Ki human A2B
T4 construct: expressed in transfected cells; host or cells: HEK-293
T4 sequence (P29275 1-332): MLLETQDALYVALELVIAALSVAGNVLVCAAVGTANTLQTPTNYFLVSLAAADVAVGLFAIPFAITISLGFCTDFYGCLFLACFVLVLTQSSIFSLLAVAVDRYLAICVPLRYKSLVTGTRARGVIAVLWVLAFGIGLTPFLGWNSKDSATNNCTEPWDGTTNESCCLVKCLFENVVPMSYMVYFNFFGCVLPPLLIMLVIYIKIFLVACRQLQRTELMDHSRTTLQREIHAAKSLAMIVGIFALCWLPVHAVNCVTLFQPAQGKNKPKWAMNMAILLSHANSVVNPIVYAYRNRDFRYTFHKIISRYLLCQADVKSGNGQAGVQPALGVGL
Experimental: The plasmid was amplified in competent JM109 cells and plasmid DNA isolated using Wizard Megaprep columns (Promega Corp., Madison, WI).
Colonies were selected by growth of cells in 0.6 mg/mL G418. Transfected cells were maintained in DMEM supplemented with Hams F12 nutrient mixture (1/1), 10% newborn calf serum, 2 mM glutamine, and containing 50 IU/mL penicillin, 50 μg/mL streptomycin, and 0.2 mg/mL Geneticin (G418, Boehringer Mannheim, Indianapolis, IN).
Confluent monolayers of HEK-A2B cells were washed with PBS followed by ice-cold Buffer A (10 mM HEPES, 10 mM EDTA, pH 7.4) with protease inhibitors ([…] benzamidine, […], and […] of each aprotinin, pepstatin, and leupeptin). The cells were homogenized in a Polytron (Brinkmann) for 20 sec, centrifuged at 30,000g, and the pellets washed twice with buffer HE (10 mM HEPES, 1 mM EDTA, pH 7.4 with protease inhibitors). The final pellet was resuspended in buffer HE, supplemented with 10% sucrose and frozen in aliquots at −80°C. For binding assays, membranes were thawed and diluted 5–10-fold with HE to a final protein concentration of approximately 1 mg/mL. […] After incubating for 20 min at room temperature, 50 mL of 10 mg/mL Na-metabisulfite in water was added the quench the reaction. The reaction products were applied to a C18 HPLC column using 4 mM phosphate, pH 6.0/methanol. […] The incubation time was 3 h at 21°C. […] Membranes were filtered on Whatman GF/C filters using a Brandell cell harvester (Gaithersburg, MD) and washed three times over 15–20 sec with ice-cold buffer (10 mM Tris, 1 mM MgCl2, pH 7.4). […] Data from replicate experiments are tabulated as means ± SEM.
At A2B receptors, two radioligand binding assays (Table 1) were used. […] In order to evaluate selectivity, selected derivatives were subjected to standard binding assays at A1, A2A, and A3 receptors.

[1] = HEK-293 cells, vs [3H]ZM241385, read-out: Ki hA2B
[2] = rounded values given in text, read-out: Ki at human A2B receptors

T3 sequence (P30543 whole entry): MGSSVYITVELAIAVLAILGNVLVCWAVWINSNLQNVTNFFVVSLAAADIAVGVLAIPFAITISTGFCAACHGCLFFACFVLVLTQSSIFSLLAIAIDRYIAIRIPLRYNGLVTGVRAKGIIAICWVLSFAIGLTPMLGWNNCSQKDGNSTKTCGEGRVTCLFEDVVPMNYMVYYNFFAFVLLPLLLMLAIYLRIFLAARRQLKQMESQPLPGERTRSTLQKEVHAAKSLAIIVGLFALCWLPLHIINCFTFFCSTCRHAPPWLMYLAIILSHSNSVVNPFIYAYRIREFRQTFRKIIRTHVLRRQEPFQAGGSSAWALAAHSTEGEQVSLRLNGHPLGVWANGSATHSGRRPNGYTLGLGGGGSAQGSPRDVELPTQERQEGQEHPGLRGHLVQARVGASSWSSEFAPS

| Structure (SMILES) | Ki (human A3 receptors) [nM] | Ki (rat A1 receptors) [nM] | Ki (rat A2A receptors) [nM] | Ki (human A2B receptors; [1]) [nM] | rA1/hA2B (human A2B receptors) | Ki (human A2B receptors; [2]) [nM] |
| --- | --- | --- | --- | --- | --- | --- |
| CCCn1c(=O)c2nc(-c3ccc(OCC(=O)NN)cc3)[nH]c2n(CCC)c1=O [Compound 4c] | 498 ± 139 | 16 ± 0.5 | 63.8 ± 21.3 | – | – | – |
| CCCn1c(=O)c2[nH]c(-c3ccc(OCC(=O)NN4C(=O)C[C@H](NC(=O)C(F)(F)F)C4=O)cc3)nc2n(CCC)c1=O [Compound 11, 8-[4-[(Carboxymethyl)oxy]phenyl]-1,3-di-(n-propyl)xanthine N,N-[((2S)-Trifluoroacetamido)-succinyl]hydrazide] | 1560 | 74.3 ± 6.6 | 139 ± 32 | 30.2 ± 0.5 | 2.5 | 30 |
| CCCn1c(=O)c2[nH]c(-c3ccc(OCC(=O)NN4C(=O)CCC(c5ccccc5)C4=O)cc3)nc2n(CCC)c1=O (stereo not shown) [Compound 12, 8-[4-[(Carboxymethyl)oxy]phenyl]-1,3-di-(n-propyl)xanthine N,N-[(2-Phenyl)glutaryl]hydrazide] | 151 ± 99 | 3.87 ± 1.2 | 21.4 ± 6.1 | 3.86 ± 0.7 | 1.0 | – |
| CCCn1c(=O)c2[nH]c(-c3ccc(OCC(=O)NN4C(=O)C=C(C)C4=O)cc3)nc2n(CCC)c1=O [Compound 13, 8-[4-[(Carboxymethyl)oxy]phenyl]-1,3-di-(n-propyl)xanthine N,N-Citraconylhydrazide] | 551 ± 106 | 203 ± 41 | 1230 | 144 ± 11 | 1.4 | – |
| CCCn1c(=O)c2[nH]c(-c3ccc(OCC(=O)NN4C(=O)C=C(c5ccccc5)C4=O)cc3)nc2n(CCC)c1=O [Compound 16, 8-[4-[(Carboxymethyl)oxy]phenyl]-1,3-di-(n-propyl)xanthine N,N-[(2-Phenyl)maleyl]hydrazide] | 748 ± 234 | 225 ± 76 | 1540 | 66.7 ± 37 | 3.4 | 67 |
| CCCn1c(=O)c2[nH]c(-c3ccc(OCC(=O)NN4C(=O)C(c5ccccc5)=C(c5ccccc5)C4=O)cc3)nc2n(CCC)c1=O [Compound 17, 8-[4-[(Carboxymethyl)oxy]phenyl]-1,3-di-(n-propyl)xanthine N,N-[(1,2-Diphenyl)maleyl]hydrazide] | 3450 | 95.8 ± 25.1 | 2100 | 27.9 ± 8.5 | 3.4 | 28 |
| CCCn1c(=O)c2[nH]c(-c3ccc(OCC(=O)NNC(=O)C4CC=CCC4C(=O)O)cc3)nc2n(CCC)c1=O (stereo not drawn) [Compound 18a, 8-[4-[(Carboxymethyl)oxy]phenyl]-1,3-di-(n-propyl)xanthine N-[2-((1-Carboxy)-cis-4-cyclohexene)-carbonyl]hydrazide] | 1060 | 134 ± 19 | 813 ± 299 | 51 ± 7 | 2.6 | – |
| CCCn1c(=O)c2[nH]c(-c3ccc(OCC(=O)NN4C(=O)CCCC4=O)cc3)nc2n(CCC)c1=O [Compound 22, 8-[4-[(Carboxymethyl)oxy]phenyl]-1,3-di-(n-propyl)xanthine N,N-Glutarylhydrazide] | 200 ± 45 | 14 ± 2.3 | 135 ± 39 | 22 ± 5.5 | 0.6 | – |
| CCCn1c(=O)c2[nH]c(-c3ccc(OCC(=O)NN4C(=O)CC(O)CC4=O)cc3)nc2n(CCC)c1=O [Compound 23, 8-[4-[(Carboxymethyl)oxy]phenyl]-1,3-di-(n-propyl)xanthine N,N-(3-Hydroxy)glutarylhydrazide] | 290 ± 88 | 41.2 ± 16.6 | 164 ± 61 | 25.7 ± 5.5 | 1.6 | – |
| CCCn1c(=O)c2[nH]c(-c3ccc(OCC(=O)NNC(=O)[C@H](CC(C)C)NC(=O)OC(C)(C)C)cc3)nc2n(CCC)c1=O [Compound 25, 8-[4-[(Carboxymethyl)oxy]phenyl]-1,3-di-(n-propyl)xanthine N-(N-tert-Butoxycarbonyl-L-leucinyl)-hydrazide] | 195 ± 84 | 197 ± 67 | 2750 | 47.5 ± 2.5 | 4.1 | 48 |

Second part, the compound after the results:

| Ki (human A3 receptors) [nM] | Ki (rat A1 receptors) [nM] | Ki (rat A2A receptors) [nM] | Ki (human A2B receptors; [1]) [nM] | rA1/hA2B (human A2B receptors) | Ki (human A2B receptors; [2]) [nM] | Structure (SMILES) |
| --- | --- | --- | --- | --- | --- | --- |
| 1180 | 81.7 ± 31.2 | 708 ± 169 | 78.5 ± 20.5 | 1.0 | – | CCCn1c(=O)c2[nH]c(-c3ccc(OCC(=O)NNC(=O)C4=C(C(=O)O)CCC4)cc3)nc2n(CCC)c1=O [Compound 19a, 8-[4-[(Carboxymethyl)oxy]phenyl]-1,3-di-(n-propyl)xanthine N-[2-((1-Carboxy)-1-cyclopentene)-carbonyl]hydrazide] |
| 308 ± 88 | 41.3 ± 6.4 | 1160 | 21.5 ± 1.5 | 1.9 | – | CCCn1c(=O)c2[nH]c(-c3ccc(OCC(=O)NN4C(=O)C5=C(CCC5)C4=O)cc3)nc2n(CCC)c1=O [Compound 19b, 8-[4-[(Carboxymethyl)oxy]phenyl]-1,3-di-(n-propyl)xanthine N,N-(1-Cyclopentene-1,2-dicarbonyl)-hydrazide] |
| 245 ± 45 | 61.9 ± 11.3 | 415 ± 157 | 35.8 ± 0.7 | 1.7 | – | CCCn1c(=O)c2[nH]c(-c3ccc(OCC(=O)NN4C(=O)C5=C(CCCC5)C4=O)cc3)nc2n(CCC)c1=O [Compound 20b, 8-[4-[(Carboxymethyl)oxy]phenyl]-1,3-di-(n-propyl)xanthine N,N-(3,4,5,6-Tetrahydrophthaloyl)-hydrazide] |
| 430 ± 44 | 70.8 ± 30.9 | 872 ± 412 | 24.8 ± 7.3 | 2.9 | 25 | CCCn1c(=O)c2[nH]c(-c3ccc(OCC(=O)NNC(=O)[C@H](CCC(=O)O)NC(=O)C(F)(F)F)cc3)nc2n(CCC)c1=O [Compound 24a, 8-[4-[(Carboxymethyl)oxy]phenyl]-1,3-di-(n-propyl)xanthine N-[(4-Carboxy-(2S)-Trifluoroacetamido)-n-butanoyl]hydrazide] |
